Assay results published in patent publication US10138229B2, “Heteroaromatic compounds as BTK inhibitors” (Boehringer Ingelheim International GmbH, priority 2012, dated 2018).

Key:
[1] = biological target: full-length human His-tagged BTK (Homo sapiens (Human), UniProt Q06187); assay: BTK Assay (HTRF, Cisbio KinEASE-TK); format: biochemical; details: 6 nM BTK, 30 uM ATP, 15 min preincubation
Protocol: An HTRF assay (Cisbio KinEASE-TK cat #62TKOPEC) was performed to quantitate the ability of test compounds to inhibit BTK mediated phosphorylation of substrate. Assays were assembled in 384 well plates where 6 nM of full-length human His-tagged BTK (Life Technologies cat # PV3587) and test compound at varying concentrations were preincubated for 15 minutes at 28° C. Then, 1 uM of TK substrate-biotin and 30 uM ATP were added and incubated for an additional 30 minutes at 28° C.

BTK = BTK (Homo sapiens (Human), UniProt Q06187); assay: Inhibition of B-cell activation measured by CD69 expression in primary CD19+ cells; format: cell-based; details: primary CD19+ cells stimulated with anti-human IgD, CD69 expression by flow cytometry
Protocol: Cells were collected and plated in a 96 flat bottom plate at a concentration of 2×10^5/well in RPMI media containing 10% FBS, rested for 1 hour at 37° c. Cells were treated with inhibitor in duplicates or vehicle control in 1% DMSO final concentration for 1 hour at 37° c., 5% CO2. […] B cells were analyzed by flow cytometry using a BD LSRII or BD FACsCanto Flow Cytometer. Viable cells were gated, and CD69 percentage was determined using FlowJo software.

EGFR = EGFR (Homo sapiens (Human), UniProt P00533); assay: Inhibition of EGFR autophosphorylation in A431 human epithelial cells stimulated with EGF; format: cell-based; details: EGF 60 ng/mL, phospho EGFR, read-out: A431 p-EGFR IC50
Text: The compounds described herein show a range of selectivities against EGFR as measured in cellular assays (BTK activity measured by CD69 expression in primary CD19^+ cells; EGFR activity measured by EGFR phosphorylation in A431 cells).
Inhibition of EGFR Autophosphorylation in A431 Human Epithelial Cells Stimulated with Epithelial Growth Factor
A431 cells (ATCC # CRL-1555 FZ) are thawed and plated in DMEM containing 10% FBS in a 384-well tissue culture treated plate at 15,000 cells/well. After incubating for 24 hours at 37° C., 5% CO2, the cells are treated with test compound (1% DMSO final concentration) and incubated for 16 hours at 37° C., 5% CO2. EGF (Millipore, 01-107) is added at a final concentration of 60 ng/mL and incubated for 10 minutes. The medium is removed, the cells are lysed, and phospho EGFR is measured (Meso Scale Diagnostics, N31CB-1).

Sequence of EGFR (P00533 25-1210): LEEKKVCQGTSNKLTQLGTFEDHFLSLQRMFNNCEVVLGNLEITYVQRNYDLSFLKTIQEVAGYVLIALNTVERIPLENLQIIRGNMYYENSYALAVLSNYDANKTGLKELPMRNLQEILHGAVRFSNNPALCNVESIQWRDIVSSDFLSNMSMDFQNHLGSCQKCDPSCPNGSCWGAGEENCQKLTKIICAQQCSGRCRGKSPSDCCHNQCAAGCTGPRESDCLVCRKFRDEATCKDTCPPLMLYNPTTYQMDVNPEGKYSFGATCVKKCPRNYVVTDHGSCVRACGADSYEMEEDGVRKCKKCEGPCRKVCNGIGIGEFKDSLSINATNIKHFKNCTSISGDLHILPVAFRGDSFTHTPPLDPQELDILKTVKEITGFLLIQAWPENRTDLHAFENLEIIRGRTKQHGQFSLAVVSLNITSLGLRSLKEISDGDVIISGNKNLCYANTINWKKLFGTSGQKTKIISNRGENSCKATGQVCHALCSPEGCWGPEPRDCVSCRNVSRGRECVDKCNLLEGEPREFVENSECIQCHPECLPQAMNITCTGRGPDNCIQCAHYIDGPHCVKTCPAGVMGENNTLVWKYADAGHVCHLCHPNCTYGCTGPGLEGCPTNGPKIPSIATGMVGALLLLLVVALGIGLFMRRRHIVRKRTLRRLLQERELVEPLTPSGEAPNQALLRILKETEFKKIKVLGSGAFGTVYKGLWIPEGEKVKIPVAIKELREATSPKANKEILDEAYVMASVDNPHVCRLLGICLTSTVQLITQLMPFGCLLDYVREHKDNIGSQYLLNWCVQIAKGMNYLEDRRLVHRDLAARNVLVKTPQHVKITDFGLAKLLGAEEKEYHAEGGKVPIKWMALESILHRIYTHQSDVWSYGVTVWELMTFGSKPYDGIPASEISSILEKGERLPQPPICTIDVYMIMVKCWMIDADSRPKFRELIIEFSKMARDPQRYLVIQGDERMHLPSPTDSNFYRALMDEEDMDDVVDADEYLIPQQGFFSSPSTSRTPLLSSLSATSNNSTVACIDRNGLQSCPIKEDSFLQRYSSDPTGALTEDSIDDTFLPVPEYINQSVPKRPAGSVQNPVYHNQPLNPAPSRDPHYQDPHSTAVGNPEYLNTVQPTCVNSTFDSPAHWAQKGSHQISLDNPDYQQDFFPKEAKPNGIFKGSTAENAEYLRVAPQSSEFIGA
Sequence of BTK (Q06187 whole entry): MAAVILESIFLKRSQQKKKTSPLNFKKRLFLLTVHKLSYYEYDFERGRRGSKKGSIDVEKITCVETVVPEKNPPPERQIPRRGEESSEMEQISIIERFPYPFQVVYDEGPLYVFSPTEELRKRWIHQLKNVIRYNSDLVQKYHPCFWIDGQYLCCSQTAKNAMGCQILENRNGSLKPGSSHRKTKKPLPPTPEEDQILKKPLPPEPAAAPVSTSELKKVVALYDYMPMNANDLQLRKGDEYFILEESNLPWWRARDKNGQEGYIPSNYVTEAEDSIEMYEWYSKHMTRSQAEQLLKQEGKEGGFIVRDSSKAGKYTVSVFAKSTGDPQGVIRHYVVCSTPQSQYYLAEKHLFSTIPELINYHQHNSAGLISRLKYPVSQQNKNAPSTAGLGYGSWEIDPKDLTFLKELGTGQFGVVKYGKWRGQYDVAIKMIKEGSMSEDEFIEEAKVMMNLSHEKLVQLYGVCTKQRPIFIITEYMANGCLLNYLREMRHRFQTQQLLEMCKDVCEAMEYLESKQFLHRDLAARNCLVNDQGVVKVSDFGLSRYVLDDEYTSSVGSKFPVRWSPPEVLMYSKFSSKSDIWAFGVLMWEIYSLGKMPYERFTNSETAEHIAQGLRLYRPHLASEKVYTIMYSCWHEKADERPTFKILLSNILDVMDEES
Sequence of full-length human His-tagged BTK (Q06187 whole entry): as above

Row | IC50 [1] [nM] | IC50 (BTK) [nM] | IC50 (EGFR) [nM] | Structure (SMILES)
1 | 3.5 | 7.8 | 6400 | CC#CC(=O)N1CC2(CC(n3nc(-c4ccc(OCC(F)(F)F)cc4)c(C(N)=O)c3N)C2)C1 [Example 115]
2 | 3.5 | 9 | 4700 | C=CC(=O)N1CC2(CC(n3cc(C(N)=O)c(-c4ccc(Oc5ccccc5)cc4)n3)C2)C1 [Example 28]
3 |  |  | 6.6 | C=CC(=O)N1CCC[C@@H](n2nc(-c3ccc(Oc4ccccc4)cc3)c(C(N)=O)c2N)C1 [Example 54]
4 | 13 | 30 | > 10000 | CC#CC(=O)N1CC2(CC(n3nc(-c4ccc(OC(C)C)cc4)c(C(N)=O)c3N)C2)C1 [Example 106]
5 | 2.1 | 2.5 | 1800 | CC#CC(=O)N1CC[C@]2(C1)C[C@@H](c1nc(-c3ccc(Oc4ccccc4)cc3)c(C(N)=O)s1)C2 [Example 78]
6 | 180 |  |  | CC#CC(=O)N1CCC(Cn2cc(C(N)=O)c(-c3ccc(Oc4ccccc4)cc3)n2)CC1 [Example 49]
7 | 1.1 |  |  | CC#CC(=O)N1CC2(CC(c3nc(-c4ccc(Oc5ccccc5)cc4)c(C(N)=O)s3)C2)C1 [Example 58]
8 | 1.2 |  |  | CC#CC(=O)N1CC[C@]2(C1)C[C@H](n1nc(-c3ccc(OC(C)C)cc3)c(C(N)=O)c1N)C2 [Example 168]
9 | 3.2 |  |  | NC(=O)c1c(-c2ccc(Oc3ccccc3)cc2)nn([C@H]2C[C@]3(CCN(C(=O)/C=C/CN4CCOCC4)C3)C2)c1N [Example 99]
10 | 0.5 | 1.5 | 420 | CC#CC(=O)N1CC[C@]2(C1)C[C@H](n1nc(-c3ccc(OCC(F)(F)F)cc3)c(C(N)=O)c1N)C2 [Example 164]
11 | 0.79 | 0.9 | 790 | C=CC(=O)N1CC[C@]2(C1)C[C@@H](n1nc(-c3ccc(Oc4ccccc4)cc3)c(C(N)=O)c1N)C2 [Example 81]
12 | 0.79 |  |  | CC#CC(=O)N1CC[C@]2(C1)C[C@H](n1nc(-c3ccc(Oc4ccccc4)cc3)c(C(N)=O)c1N)C2 [Example 91]
13 | 0.73 | 1 | 430 | CC#CC(=O)N1CC2(CC(n3nc(-c4ccc(Oc5ccccc5)cc4)c(C(N)=O)c3N)C2)C1 [Example 41]
14 | 9.2 |  |  | C=CC(=O)N1CC2(CC(n3nc(-c4ccc(Oc5ccccc5)nc4)c(C(N)=O)c3N)C2)C1 [Example 101]
15 | 9.2 |  |  | CC#CC(=O)N1CC2(CC(n3nc(-c4ccc(C(F)(F)F)cc4)c(C(N)=O)c3N)C2)C1 [Example 147]
16 | 0.87 |  |  | CC#CC(=O)N1CC2(CC(n3nc(-c4ccc(Oc5ccccc5)cn4)c(C(N)=O)c3N)C2)C1 [Example 110]
17 | 0.9 |  |  | CC#CC(=O)N1CC[C@]2(C1)C[C@H](n1nc(-c3ccc(OCCC)cc3)c(C(N)=O)c1N)C2 [Example 140]
18 | 1.4 | 4.5 | 1200 | CC#CC(=O)N1CC[C@]2(C1)C[C@H](n1nc(-c3ccc(OC(F)(F)F)cc3)c(C(N)=O)c1N)C2 [Example 160]
19 | 0.6 |  |  | CC#CC(=O)N1CC[C@]2(C1)C[C@H](n1nc(-c3ccc(OC)cc3)c(C(N)=O)c1N)C2 [Example 154]
20 | 3.3 | 8.2 | 4200 | CC#CC(=O)N1CC2(CC(n3nc(-c4ccc(OCCC)cc4)c(C(N)=O)c3N)C2)C1 [Example 107]
21 | 2 |  |  | C=CC(=O)N1CCC2(CC1)CC(n1nc(-c3ccc(Oc4ccccc4)cc3)c(C(N)=O)c1N)C2 [Example 82]
22 | 3.2 |  |  | C=CC(=O)N1CC2(CC(c3nc(-c4ccc(Oc5ccccc5)cc4)c(C(N)=O)s3)C2)C1 [Example 57]

The remaining lines, values behind:

Row | Structure (SMILES) | IC50 [1] [nM] | IC50 (BTK) [nM] | IC50 (EGFR) [nM]
23 | C=CC(=O)N1CC2(CC(n3nc(-c4ccc(OC5CC5)cc4)c(C(N)=O)c3N)C2)C1 [Example 112] | 6.7 | 41 | 5800
24 | C=CC(=O)N1CC[C@]2(C1)C[C@H](n1cc(C(N)=O)c(-c3ccc(Oc4ccccc4)cc3)n1)C2 [Example 40] | 4.9 | 20 | > 10000
25 | CC#CC(=O)N1CC[C@]2(C1)C[C@H](n1nc(-c3ccc(OC)cc3Cl)c(C(N)=O)c1N)C2 [Example 158] | 6.3 | 58 | > 10000
26 | C=CC(=O)N1CCC[C@@H](n2cc(C(N)=O)c(-c3ccc(Oc4ccccc4F)cc3)n2)C1 [Example 96] | 4.8 |  | 
27 | C=CC(=O)N1CC2(CC(n3nc(-c4ccc(OC(F)(F)F)cc4)c(C(N)=O)c3N)C2)C1 [Example 109] | 24 |  | 
28 | CC#CC(=O)N1CC2(CC(n3nc(-c4ccc(F)c(OCC(F)(F)F)c4)c(C(N)=O)c3N)C2)C1 [Example 149] | 100 |  | 
29 | CC#CC(=O)N1CC[C@]2(C1)C[C@@H](n1nc(-c3ccc(C(F)(F)F)cc3)c(C(N)=O)c1N)C2 [Example 129] | 29 |  | 
30 | C=CC(=O)N1CCC[C@@H](n2cc(C(N)=O)c(-c3cccc(OCc4ccccc4)c3)n2)C1 [Example 3] | 810 |  | 
31 | C=CC(=O)N1CCC[C@@H](n2cc(C(N)=O)c(-c3ccc(-n4nc(C)cc4C)cc3)n2)C1 [Example 14] | 7800 |  | 
32 | CC#CC(=O)N1CCC[C@H]1Cn1cc(C(N)=O)c(-c2ccc(Oc3ccccc3)cc2)n1 [Example 32] | 150 |  | 
33 | C=CC(=O)N1CCC[C@@H](n2cc(C(N)=O)c(-c3ccc(C(=O)N4CCCCC4)cc3)n2)C1 [Example 94] | 8200 |  | 
34 | C=CC(=O)N1CCC[C@H]1Cc1nc(-c2ccc(Oc3ccccc3)cc2)c(C(N)=O)s1 [Example 50] | 3 |  | 
35 | C=CC(=O)N1CCC[C@@H](n2cc(C(N)=O)c(-c3ccc(Oc4ccc(S(C)(=O)=O)cc4)cc3)n2)C1 [Example 64] | 6500 |  | 
36 | C=CC(=O)N1CC[C@]2(C1)C[C@H](n1nc(-c3ccc(C(F)(F)F)cc3)c(C(N)=O)c1N)C2 [Example 130] | 6.4 |  | 
37 | CC#CC(=O)N1CC[C@]2(C1)C[C@H](n1nc(-c3ccc(OCCC)c(F)c3)c(C(N)=O)c1N)C2 [Example 161] | 1.1 | 2.1 | 400
38 | C=CC(=O)N1CCC[C@@H](n2cc(C(N)=O)c(-c3ccc(Oc4cccc(C#N)c4)cc3)n2)C1 [Example 76] | 61 |  | 
39 | C=CC(=O)N1CC2(CC(n3nc(-c4ccc(OC(C)C)cc4)c(C(N)=O)c3N)C2)C1 [Example 105] | 13 |  | 
40 | C=CC(=O)N1CCC[C@@H](n2cc(C(N)=O)c(-c3ccc(Oc4ccc(F)cc4)cc3)n2)C1 [Example 62] | 93 |  | 
41 | C=CC(=O)N1CCC[C@H]1Cn1cc(C(N)=O)c(-c2ccc(Oc3ccccc3)cc2)n1 [Example 33] | 9.7 |  | 
42 | CC#CC(=O)N1CCC[C@H]1Cc1nc(-c2ccc(Oc3ccccc3)cc2)c(C(N)=O)s1 [Example 53] | 14 |  | 
43 | C=CC(=O)N1CC2(CC(n3nc(-c4ccc(Cl)c(C(F)(F)F)c4)c(C(N)=O)c3N)C2)C1 [Example 135] | 26 |  | 
44 | C=CC(=O)N1CCC[C@@H](n2cc(C(N)=O)c(-c3ccc(Oc4ccc(Cl)c(Cl)c4)cc3)n2)C1 [Example 69] | 43 |  | 
45 | C=CC(=O)N1CCC[C@@H](n2cc(C(N)=O)c(-c3ccc(NS(=O)(=O)c4cccc(Cl)c4Cl)cc3)n2)C1 [Example 61] | 780 |  | 
46 | C=CC(=O)N1CC[C@]2(C1)C[C@@H](n1cc(C(N)=O)c(-c3ccc(Oc4ccccc4)cc3)n1)C2 [Example 88] | 21 |  | 
47 | C=CC(=O)N1CCC[C@@H](c2nc(-c3ccc(Oc4ccccc4)cc3)c(C(N)=O)[nH]2)C1 [Example 46] | 1.2 | 2 | 120
48 | C=CC(=O)N1CC[C@]2(C1)C[C@H](n1nc(-c3ccc(OCC(F)(F)F)cc3)c(C(N)=O)c1N)C2 [Example 163] | 4.8 | 15 | 5200
49 | C=CC(=O)N1CC[C@]2(C1)C[C@H](n1nc(-c3ccc(OCCC)c(F)c3)c(C(N)=O)c1N)C2 [Example 165] | 15 | 10 | 3700
